“Also recorded” adds a separate entry of the source. Read-outs that look alike come from different tables or passages of the source.
Columns and labels:
[1] = target: T1, human nSMase2 (Homo sapiens, UniProt Q9NY59); assay: biochemical; format: biochemical
T1 construct: expressed in transfected cells; host or cells: HEK293T
T1 sequence (Q9NY59 1-655): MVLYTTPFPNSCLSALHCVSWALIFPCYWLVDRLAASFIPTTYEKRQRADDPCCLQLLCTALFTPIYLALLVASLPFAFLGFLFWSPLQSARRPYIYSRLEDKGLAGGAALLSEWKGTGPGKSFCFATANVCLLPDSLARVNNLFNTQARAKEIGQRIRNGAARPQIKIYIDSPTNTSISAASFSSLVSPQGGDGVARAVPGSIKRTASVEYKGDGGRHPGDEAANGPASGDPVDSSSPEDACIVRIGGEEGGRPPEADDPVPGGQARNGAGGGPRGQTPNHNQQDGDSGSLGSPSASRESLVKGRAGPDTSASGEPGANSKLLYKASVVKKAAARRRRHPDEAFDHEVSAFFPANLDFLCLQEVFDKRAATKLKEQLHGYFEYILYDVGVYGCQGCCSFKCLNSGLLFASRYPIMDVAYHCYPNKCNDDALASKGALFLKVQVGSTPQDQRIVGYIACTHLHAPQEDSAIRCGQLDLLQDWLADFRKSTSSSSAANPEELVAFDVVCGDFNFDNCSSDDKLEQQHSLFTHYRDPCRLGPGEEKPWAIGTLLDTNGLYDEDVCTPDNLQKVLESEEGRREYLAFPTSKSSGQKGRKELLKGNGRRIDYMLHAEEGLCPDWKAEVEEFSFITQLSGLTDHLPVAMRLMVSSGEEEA
Experimental: To evaluate nSMase2 inhibitory activity of tested compounds, cell lysates from HEK293T cells over-expressing human nSMase2 were used as the source of the nSMase2 enzyme. The Amplex Red Sphingomyelinase activity assay was performed according to previously a described protocol^1. Confluent cells were washed with PBS and harvested with lysis buffer [100 mM Tris-HCl pH 7.5, 100 mM sucrose, 100 μM PMSF, 1× protease inhibitor cocktail] using a cell scraper, and then sonicated 3 times on ice for 10 sec and centrifuged at 10,000×g for 10 min at 4° C. to remove remaining cell debris. An initial screening of a compound library was performed using 50 μM compound concentrations. In secondary testing, selected compounds were analyzed at multiple compound concentrations and plotted as a percentage of DMSO control; dose-response curves were generated to determine IC50s using GraphPad Prism software (GraphPad Software, La Jolla Calif.). […] Activity of the enzyme in the presence of the different concentrations of the inhibitors was plotted against substrate concentration and the maximal rate of the enzymatic reaction (Vmax) and Michaelis constant were calculated using GraphPad Prism.

[2] = target: T2, Human AChE (Homo sapiens, UniProt P22303); assay: biochemical
T2 construct: purchased Sigma
Experimental: This acetylcholinesterase (AChE) assay is based on an Amplex Red assay kit (Thermo Fisher A12217). Human AChE (Sigma) was used. Briefly, 5 μL of compounds at the desired concentration were loaded into wells of a 384-well plate. Then, 5 μl of human AChE (30 mU/mL) was loaded into each well, followed by the addition of 10 μL of the working solution which contains 400 μM Amplex Red reagent, 2 U/mL HRP, 0.2 U/mL choline oxidase, and 100 μM acetylcholine. The reaction was monitored for 60 minutes and read at 530/590 nm. AChE IC50 was determined by plotting AChE activity as a percentage of DMSO control using GraphPad Prism software.

[3] = Parallel artificial membrane permeability (IAM column) prediction of CNS permeability; format: in vitro ADME
Experimental: To predict the potential for brain permeability, a Regis Technologies analytical column connected to an Agilent HPLC system (Infinity 1260 quaternary pump and multiple wavelength detector; 1200 autosampler) was used. An IAM.PC.DD column was (4.6 mm i.d.×10 cm, particle size 5 μm; pore size 300 Å) conditioned with 20 column volumes of mobile phase or until a stable line was achieved. A mobile phase with a consistent flow rate of 1 mL/min was used comprising 100 mM Na2PO4 (solvent A) and acetonitrile (solvent B); compounds were eluted using a gradient (min/% B: 0/30, 10/60, 11/30, 15/30). Detector settings were 220, 250 and 280 nm and acquisition time was 15 min. The autosampler injected 10 μL of compound at 2 mM final, diluted from 10 mM in DMSO in 70:30 (water:acetonitrile). After elution, compound retention and void volume times were obtained from the chromatogram. The IAM capacity factor: (KIAM) was calculated using the equation: […]
where tr is the retention time of a compound and t0 is the void volume time of the column. To predict CNS permeability, we used the correlation described by the formula below.

[4] = target: human serum albumin (HSA) (Homo sapiens, UniProt P02768); assay: Binding to human serum albumin (HSA); details: for fraction unbound: human, human serum albumin
human serum albumin (HSA), sequence (P02768 25-609): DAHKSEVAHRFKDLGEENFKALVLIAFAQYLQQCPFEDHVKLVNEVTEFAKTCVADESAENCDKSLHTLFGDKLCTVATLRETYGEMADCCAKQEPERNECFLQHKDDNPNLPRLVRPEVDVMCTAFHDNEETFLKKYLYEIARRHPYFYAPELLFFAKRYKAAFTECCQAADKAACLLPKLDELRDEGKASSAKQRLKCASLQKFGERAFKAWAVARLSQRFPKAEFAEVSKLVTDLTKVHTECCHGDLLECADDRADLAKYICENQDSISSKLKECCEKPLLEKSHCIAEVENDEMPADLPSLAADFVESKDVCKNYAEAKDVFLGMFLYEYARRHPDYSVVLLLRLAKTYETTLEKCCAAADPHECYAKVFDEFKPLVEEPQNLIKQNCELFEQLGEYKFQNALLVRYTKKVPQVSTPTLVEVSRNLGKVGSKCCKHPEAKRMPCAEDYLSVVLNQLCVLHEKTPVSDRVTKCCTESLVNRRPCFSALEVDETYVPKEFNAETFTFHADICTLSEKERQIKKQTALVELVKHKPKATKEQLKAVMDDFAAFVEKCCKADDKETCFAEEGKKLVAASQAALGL

T2 sequence (P22303 32-614): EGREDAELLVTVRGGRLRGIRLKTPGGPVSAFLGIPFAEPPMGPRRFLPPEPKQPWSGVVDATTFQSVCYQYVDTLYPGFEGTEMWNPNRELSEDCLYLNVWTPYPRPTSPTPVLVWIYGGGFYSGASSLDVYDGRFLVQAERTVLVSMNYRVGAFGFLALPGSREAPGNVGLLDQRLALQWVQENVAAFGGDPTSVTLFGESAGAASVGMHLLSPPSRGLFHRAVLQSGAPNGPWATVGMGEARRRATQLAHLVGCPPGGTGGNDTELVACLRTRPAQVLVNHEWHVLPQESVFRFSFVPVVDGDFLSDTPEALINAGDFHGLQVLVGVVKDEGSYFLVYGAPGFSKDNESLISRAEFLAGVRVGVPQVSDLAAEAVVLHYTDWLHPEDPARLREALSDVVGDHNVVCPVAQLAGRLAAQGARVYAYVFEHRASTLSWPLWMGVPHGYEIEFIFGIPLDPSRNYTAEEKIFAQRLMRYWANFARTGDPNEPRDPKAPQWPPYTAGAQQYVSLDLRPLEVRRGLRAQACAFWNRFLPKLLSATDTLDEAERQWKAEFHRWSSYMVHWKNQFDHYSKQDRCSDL

SMILES	IC50 ([1]; IC50 (nSMase2) Groups: A-D) [µM]	IC50 ([2]; AChE activity) [µM]	other results
COc1nccc2c1N[C@H]1OCC[C@@]21C	> 50	–	–
CN1c2ccc(OCc3ccccc3)nc2[C@]2(C)CCO[C@H]12	> 50	–	–
COC(=O)N1CCC[C@@]2(C)c3nc(OC)ccc3N[C@@H]12	> 50	–	–
CN1c2ccc(OC(=O)Nc3ccc(C(F)(F)F)cc3)cc2[C@]2(C)CCO[C@H]12 [Compound 15]	–	–	IC50 ([2]; IC50 AChE): > 5 µM; CNS perm (PAMPA) ([3]; PAMPA, 2 mM): 2.2; fraction unbound [4]: 0.07
CN1c2ccc(OC(=O)Nc3ccccc3)cc2[C@]2(C)CCO[C@H]12 [Compound 1, phensvenine]	–	–	IC50 ([2]; AChE IC50): 0.5 µM; CNS perm (PAMPA) [3]: 3.2; fraction unbound [4]: 0.12; nSMase2 inhibitory activity [1]: has nSMase2 inhibitory activity; also recorded: weak nSMase2 inhibition; IC50 ([1]; IC50 nSMase2): > 1 µM
COc1cccc(NC(=O)Oc2ccc3c(c2)[C@]2(C)CCO[C@@H]2N3C)c1 [drawing 34]	1 to 10	< 0.5	–
C[C@@]12CCO[C@@H]1Nc1cccnc12	> 50	–	–
COc1ccnc2c1N[C@H]1OCC[C@@]21C	> 50	–	–
CN1c2ccc(OC(=O)Nc3ccccn3)cc2[C@]2(C)CCO[C@H]12 [Compound 12]	–	–	IC50 ([2]; IC50 AChE): > 5 µM; CNS perm (PAMPA) [3]: 1.9; degree of binding to human serum albumin (HSA) [4]: low degree of binding; fraction unbound [4]: 0.28; IC50 ([1]; IC50 nSMase2): 0.8 µM
COc1ccc(NC(=O)Oc2ccc3c(c2)[C@]2(C)CCO[C@@H]2N3C)cc1 [Compound 2]	–	–	IC50 ([2]; IC50 AChE): 3.6 µM; CNS perm (PAMPA) [3]: 2; fraction unbound [4]: 0.15; IC50 ([1]; IC50 nSMase2): 0.7 µM
CN1c2ccc(OC(=O)Nc3ccncc3F)cc2[C@]2(C)CCO[C@H]12 [Compound 13]	–	–	IC50 ([2]; IC50 AChE): > 5 µM; CNS perm (PAMPA) ([3]; PAMPA, 2 mM): 1.3; degree of binding to human serum albumin (HSA) [4]: low degree of binding; fraction unbound [4]: 0.35; IC50 ([1]; IC50 nSMase2): 0.6 µM
Cc1cc(C)cc(NC(=O)Oc2ccc3c(c2)[C@]2(C)CCO[C@@H]2N3C)c1 [Compound 6]	–	–	IC50 ([2]; IC50 AChE): 0.2 µM; CNS perm (PAMPA) [3]: 3.1; fraction unbound [4]: 0.04; IC50 ([1]; IC50 nSMase2): 3.6 µM
COc1ccc2c(n1)[C@]1(C)CCO[C@@H]1N2	> 50	–	–
CN1c2ccc(OC(=O)Nc3cncc(F)c3)cc2[C@]2(C)CCO[C@H]12 [Compound 14]	–	–	IC50 ([2]; IC50 AChE): > 5 µM; CNS perm (PAMPA) [3]: 2; fraction unbound [4]: 0.21; IC50 ([1]; IC50 nSMase2): 0.9 µM
COc1ccc2c(n1)[C@]1(C)CCCO[C@@H]1N2	> 50	–	–
C=CC[C@@]12CCN(S(=O)(=O)c3ccc(C)cc3)[C@@H]1Nc1ccc(OC)nc12	> 50	–	–
CN1c2ccc(OC(=O)Nc3ccc(OC(F)(F)F)cc3)cc2[C@]2(C)CCO[C@H]12 [Compound 4]	–	–	IC50 ([2]; IC50 AChE): > 5 µM; CNS perm (PAMPA) [3]: 0.7; fraction unbound [4]: 0.33; IC50 ([1]; IC50 nSMase2): 2.7 µM
COc1cc(NC(=O)Oc2ccc3c(c2)[C@]2(C)CCO[C@@H]2N3C)cc(OC)c1 [drawing 38]	1 to 10	< 0.5	–
CCN(C)C(=O)Oc1ccc2c(c1)[C@]1(C)CCO[C@@H]1N2C [Compound 16]	–	–	IC50 ([2]; IC50 AChE, Table 2, unit not in table, μM): > 5 µM
C[C@@]12CCO[C@@H]1Nc1ccc(Br)nc12	> 50	–	–
CCN1c2ccc(O)nc2[C@]2(C)CCO[C@H]12	1 to 10	–	–
CN1c2ccc(OC(=O)Nc3ccncc3F)cc2[C@]2(C)CCO[C@H]12 [drawing 62]	< 1	> 5	–
CCN1c2ccc(OCc3ccccc3)nc2[C@]2(C)CCO[C@H]12	> 50	–	–
COc1ccc2c(n1)[C@]1(c3ccccc3)CCO[C@@H]1N2	> 50	–	–
CN1c2ccc(OC(=O)Nc3ccc(OC(F)(F)F)cc3)cc2[C@]2(C)CCO[C@H]12 [drawing 35]	10 to 50	> 5	–

SMILES	IC50 ([1]; IC50 (nSMase2) Groups: A-D) [µM]	IC50 ([2]; AChE activity) [µM]	other results
CN1c2ccc(OC(=O)Nc3ccc(C(F)(F)F)cc3)cc2[C@]2(C)CCO[C@H]12 [drawing 64]	1 to 10	> 5	–
COc1ccc(NC(=O)Oc2ccc3c(c2)[C@]2(C)CCO[C@@H]2N3C)cc1 [drawing 33]	1 to 10	2.5 to 5	–
CN1CC[C@@]2(C)c3cc(OC(=O)Nc4ccccc4)ccc3N(C)[C@@H]12 [phenserine, reference compound]	–	–	IC50 ([1]; nSMase2 IC50): > 50 µM
CN1c2ccc(O)nc2[C@]2(C)CCO[C@H]12	1 to 10	–	–
CC[C@H]1C[C@@]2(C)c3cc(OC(=O)Nc4ccccc4)ccc3N(C)[C@H]2O1 [drawing 42]	1 to 10	2.5 to 5	–
C[C@@]12CCO[C@@H]1Nc1ccc(OCc3ccccc3)nc12	> 50	–	–
COc1cnc2c(c1)[C@]1(C)CCO[C@@H]1N2	> 50	–	–
CC[C@@H]1C[C@@]2(C)c3cc(OC(=O)Nc4ccccc4)ccc3N(C)[C@H]2O1 [drawing 43]	1 to 10	2.5 to 5	–
C[C@@]12CCO[C@@H]1Nc1ncccc12	> 50	–	–
COc1cccc(NC(=O)Oc2ccc3c(c2)[C@]2(C)CCO[C@@H]2N3C)c1 [Compound 3]	–	–	IC50 ([2]; IC50 AChE): 0.1 µM; CNS perm (PAMPA) [3]: 2.3; fraction unbound [4]: 0.1
CN1c2ccc(OC(=O)Nc3ccccc3)nc2[C@]2(C)CCO[C@H]12	1 to 10	–	–
CN1c2ccc(OC(=O)Nc3cncc(F)c3)cc2[C@]2(C)CCO[C@H]12 [drawing 63]	< 1	> 5	–
C=CC[C@@]12CCO[C@@H]1Nc1ccc(OC)nc12	> 50	–	–
CC[C@H]1C[C@@]2(C)c3cc(OC(=O)Nc4ccccc4)ccc3N(C)[C@H]2O1 [Compound 9]	–	–	IC50 ([2]; IC50 AChE): 2.5 µM; CNS perm (PAMPA) [3]: 3; fraction unbound [4]: 0.07; IC50 ([1]; IC50 nSMase2): > 5 µM
CCN(C)C(=O)Oc1ccc2c(c1)[C@]1(C)CCO[C@@H]1N2C [drawing 65]	–	> 5	–
CC[C@@H]1C[C@@]2(C)c3cc(OC(=O)Nc4ccccc4)ccc3N(C)[C@H]2O1 [Compound 10]	–	–	IC50 ([2]; IC50 AChE): 3.7 µM; CNS perm (PAMPA) [3]: 3.2; fraction unbound [4]: 0.05
COc1ccc2c(n1)[C@]1(C)CCN(S(=O)(=O)c3ccc(C)cc3)[C@@H]1N2	10 to 50	–	–
Cc1cc(C)cc(NC(=O)Oc2ccc3c(c2)[C@]2(C)CCO[C@@H]2N3C)c1 [drawing 37]	1 to 10	< 0.5	–
C[C@@]12CCO[C@@H]1Nc1ccc(Cl)nc12	> 50	–	–
CN1c2ccc(OC(=O)Nc3ccncc3)cc2[C@]2(C)CCO[C@H]12 (racemic)	–	> 5	–
CN1c2ccc(OC(=O)Nc3ccccc3)cc2[C@]2(C)CCO[C@H]12 [drawing 32]	1 to 10	< 0.5	–
C[C@@]12CCO[C@@H]1Nc1ccc(O)nc12	> 50	–	–
CN1c2ccc(OC(=O)NC3CCCCC3)cc2[C@]2(C)CCO[C@H]12 [drawing 36]	1 to 10	< 0.5	–
CN1c2ccc(OC(=O)Nc3ccccn3)cc2[C@]2(C)CCO[C@H]12 [drawing 45]	< 1	> 5	–

Reference: patent US20230113944A1, “COMPOSITIONS AND METHODS FOR THE TREATMENT OF NEURODEGENERATIVE DISEASES” (priority 2020, published 2023)
